Source: article PMC12396409, “Screening and hit evaluation of a microbial metabolite library against the pathogenic Plasmodium falciparum and Toxoplasma gondii parasites” (International Journal for Parasitology: Drugs and Drug …, 2025)
Like-named read-outs stand apart in the source and are kept apart here.

What was measured:
[1] = system: P. falciparum 3D7 parasites; assay: P. falciparum growth inhibition assay, 2-cycle (120 h treatment), delayed-death screen and dose-response; format: cell-based, Plasmodium falciparum; settings: for activity at 2 µg/mL: Plasmodium falciparum, 3D7, 120 h
[2] = system: T. gondii RH strain (RH-Tub-eYFP) tachyzoites; assay: microbe, parasite or virus in culture; format: cell-based, Toxoplasma gondii; settings: 72 h; for percent parasite growth at 2 µg/mL: Toxoplasma gondii
[3] = system: P. falciparum 3D7 parasites; assay: P. falciparum growth inhibition assay, 1-cycle (72 h treatment), SYBR DNA staining (library screen at 2 μg/mL and dose-response); format: cell-based, Plasmodium falciparum; settings: for activity at 2 µg/mL: Plasmodium falciparum, 3D7, 72 h
[4] = P. falciparum 3D7, 120 h, parasite screen at 2 μg/mL, % growth, replicate 1
[5] = P. falciparum 3D7, 120 h, parasite screen at 2 μg/mL, % growth, replicate 2
[6] = T. gondii, parasite screen at 2 μg/mL, % growth, replicate 1
[7] = T. gondii, parasite screen at 2 μg/mL, % growth, replicate 2
[8] = P. falciparum 3D7, 72 h, parasite screen at 2 μg/mL, % growth, replicate 1
[9] = P. falciparum 3D7, 72 h, parasite screen at 2 μg/mL, % growth, replicate 2
[10] = library screen at 2 μg/mL, 120 h, % growth, replicate 1
[11] = library screen at 2 μg/mL, 120 h, % growth, replicate 2
[12] = library screen at 2 μg/mL, % growth, replicate 1
[13] = library screen at 2 μg/mL, % growth, replicate 2
[14] = library screen at 2 μg/mL, 72 h, % growth, replicate 1
[15] = library screen at 2 μg/mL, 72 h, % growth, replicate 2
[16] = P. falciparum, 120 h, screen at 2 μg/mL, replicate 1
[17] = P. falciparum, 120 h, screen at 2 μg/mL, replicate 2
[18] = T. gondii, screen at 2 μg/mL, replicate 1
[19] = T. gondii, screen at 2 μg/mL, replicate 2
[20] = P. falciparum, 72 h, screen at 2 μg/mL, replicate 1
[21] = P. falciparum, 72 h, screen at 2 μg/mL, replicate 2

Question: `C[C@@H]1Cc2ccc(C(=O)N[C@@H](Cc3ccccc3)C(=O)O)c(O)c2C(=O)O1` [BIA-O1196] was tested. Which Pf_120h_%Growth_Rep1 [1, 4] did it give?
Answer: 89.68%

Question: And the Pf_120h_%Growth_Rep2 [1, 5]?
Answer: 126.27%

Question: And the Tg_72h_%Growth_Rep1 [2, 6]?
Answer: 126.36%

Question: And the Tg_72h_%Growth_Rep2 [2, 7]?
Answer: 89.16%

Question: What about the Pf_72h_%Growth_Rep1 [3, 8] of the same compound?
Answer: 83.68%

Question: What about the Pf_72h_%Growth_Rep2 [3, 9] of the same compound?
Answer: 90.59%

Question: For `Cc1c2c(c(O)c3c(O)ccc(Cl)c13)C(=O)[C@]1(O)C(O)=C(C(N)=O)C(=O)[C@@H](N(C)C)[C@@H]1C2.Cl` [Anhydrochlortetracycline hydrochloride], which Pf_120h_%Growth_Rep1 [1, 10] is on record?
Answer: 62.00%

Question: What about the Pf_120h_%Growth_Rep2 [1, 11] of the same compound?
Answer: 93.26%

Question: And the Tg_72h_%Growth_Rep1 [2, 12]?
Answer: 107.44%

Question: What about the Tg_72h_%Growth_Rep2 [2, 13] of the same compound?
Answer: 94.77%

Question: And the Pf_72h_%Growth_Rep1 [3, 14]?
Answer: 86.52%

Question: And the Pf_72h_%Growth_Rep2 [3, 15]?
Answer: 88.12%

Question: For `O=C(O)CC[N+](=O)[O-]` [BIA-N1694], which Pf_120h_%Growth_Rep1 [1, 4] is on record?
Answer: 78.14%

Question: And the Pf_120h_%Growth_Rep2 [1, 5]?
Answer: 7.96%

Question: What about the Tg_72h_%Growth_Rep1 [2, 6] of the same compound?
Answer: 133.03%

Question: What about the Tg_72h_%Growth_Rep2 [2, 7] of the same compound?
Answer: 105.32%

Question: And the Pf_72h_%Growth_Rep1 [3, 8]?
Answer: 75.60%

Question: What about the Pf_72h_%Growth_Rep2 [3, 9] of the same compound?
Answer: 92.27%

Question: How did the Pf_120h_%Growth_Rep1 ([1]; P. falciparum 3D7, 120 h, library screen at 2 μg/mL, % growth, replicate 1) turn out when `COc1cc2c(oc(=O)c3cc(C)cc(OC)c32)c2c([C@H]3O[C@@H]([C@@H](C)O)[C@H](O)[C@H]3O)ccc(O)c12` [BIA-G1034] was run?
Answer: 90.16%

Question: And the Pf_120h_%Growth_Rep2 ([1]; P. falciparum 3D7, 120 h, library screen at 2 μg/mL, % growth, replicate 2)?
Answer: 122.56%

Question: What about the Tg_72h_%Growth_Rep1 ([2]; T. gondii RH, library screen at 2 μg/mL, % growth, replicate 1) of the same compound?
Answer: 123.33%

Question: What about the Tg_72h_%Growth_Rep2 ([2]; T. gondii RH, library screen at 2 μg/mL, % growth, replicate 2) of the same compound?
Answer: 101.31%

Question: What about the Pf_72h_%Growth_Rep1 ([3]; P. falciparum 3D7, 72 h, library screen at 2 μg/mL, % growth, replicate 1) of the same compound?
Answer: 90.69%

Question: What about the Pf_72h_%Growth_Rep2 ([3]; P. falciparum 3D7, 72 h, library screen at 2 μg/mL, % growth, replicate 2) of the same compound?
Answer: 120.87%

Question: What does the source list for `C=C[C@@](C)(CCC=C(C)C)c1ccc2c3c(c[nH]c13)C[C@@H](CO)NC(=O)[C@H](C(C)C)N2C` [Teleocidin A1]?
Answer: Pf_120h_%Growth_Rep1 [1, 16]: 8.14%; Pf_120h_%Growth_Rep2 [1, 17]: 11.61%; Tg_72h_%Growth_Rep1 [2, 18]: 75.89%; Tg_72h_%Growth_Rep2 [2, 19]: 83.10%; Pf_72h_%Growth_Rep1 [3, 20]: 6.74%; Pf_72h_%Growth_Rep2 [3, 21]: -5.43%

Question: Which “2) Growth (%) at 120 h” value ([1]; P. falciparum, 2 μg/mL, 120 h) does the source give for `CC[C@H]1OC(=O)[C@H](C)[C@@H](O[C@H]2C[C@@](C)(OC)[C@@H](O)[C@H](C)O2)[C@H](C)[C@@H](O[C@@H]2O[C@H](C)C[C@H](N(C)C)[C@H]2O)[C@](C)(O)C[C@@H](C)C(=O)[C@H](C)[C@H]2OC(=O)O[C@@]21C` [Davercin, reference compound] here?
Answer: 13.05%

Question: And the Pf_120h_%Growth_Rep1 [1, 16]?
Answer: 17.41%

Question: And the Pf_120h_%Growth_Rep2 [1, 17]?
Answer: 8.68%

Question: What about the “3) Fold change (72 h/120 h)” value ([1]; P. falciparum, growth at 72 h / growth at 120 h, 2 μg/mL) of the same compound?
Answer: 4.8

Question: What about the Tg_72h_%Growth_Rep1 [2, 18] of the same compound?
Answer: 45.64%

Question: What about the Tg_72h_%Growth_Rep2 [2, 19] of the same compound?
Answer: 28.61%

Question: And the “1) Growth (%) at 72 h” value ([3]; P. falciparum, 2 μg/mL, 72 h)?
Answer: 62.94%

Question: What about the Pf_72h_%Growth_Rep1 [3, 20] of the same compound?
Answer: 70.33%

Question: And the Pf_72h_%Growth_Rep2 [3, 21]?
Answer: 55.54%

Question: What does the source list for `CNc1ccc2oc(C[C@H]3O[C@@]4(CC[C@H]3C)O[C@H]([C@H](C)C(=O)c3ccc[nH]3)[C@H](C)C[C@H]4C)nc2c1C(=O)O` [Calcimycin]?
Answer: activity at 2 µg/mL ([1]; P. falciparum, 120 h, screen at 2 μg/mL, replicate 1, read-out: Pf_120h_%Growth_Rep1): 11.6%; activity at 2 µg/mL ([1]; P. falciparum, 120 h, screen at 2 μg/mL, replicate 2, read-out: Pf_120h_%Growth_Rep2): 3.04%; percent parasite growth at 2 µg/mL ([2]; T. gondii, screen at 2 μg/mL, replicate 1, read-out: Tg_72h_%Growth_Rep1): 1.82%; percent parasite growth at 2 µg/mL ([2]; T. gondii, screen at 2 μg/mL, replicate 2, read-out: Tg_72h_%Growth_Rep2): 1.52%; activity at 2 µg/mL ([3]; P. falciparum, 72 h, screen at 2 μg/mL, replicate 1, read-out: Pf_72h_%Growth_Rep1): 13.1%; activity at 2 µg/mL ([3]; P. falciparum, 72 h, screen at 2 μg/mL, replicate 2, read-out: Pf_72h_%Growth_Rep2): 6.23%

Question: For `O=c1cc([O-])c1=O.[Na+]` [BIA-M1269], which Pf_120h_%Growth_Rep1 [1, 4] is on record?
Answer: 98.81%

Question: And the Pf_120h_%Growth_Rep2 [1, 5]?
Answer: 138.01%

Question: What about the Tg_72h_%Growth_Rep1 [2, 6] of the same compound?
Answer: 105.46%

Question: And the Tg_72h_%Growth_Rep2 [2, 7]?
Answer: 100.53%

Question: And the Pf_72h_%Growth_Rep1 [3, 8]?
Answer: 85.51%

Question: What about the Pf_72h_%Growth_Rep2 [3, 9] of the same compound?
Answer: 86.48%

Question: How did the Pf_120h_%Growth_Rep1 [1, 10] turn out when `CC(=O)NCCc1c[nH]c2ccc(O)cc12` [Acetylserotonin, N-] was run?
Answer: 81.51%

Question: And the Pf_120h_%Growth_Rep2 [1, 11]?
Answer: 80.80%

Question: What about the Tg_72h_%Growth_Rep1 [2, 12] of the same compound?
Answer: 128.90%

Question: And the Tg_72h_%Growth_Rep2 [2, 13]?
Answer: 97.07%

Question: And the Pf_72h_%Growth_Rep1 [3, 14]?
Answer: 83.62%

Question: And the Pf_72h_%Growth_Rep2 [3, 15]?
Answer: 79.72%
